Experimental data taken from US20250295609A1, “COMPOUND HAVING ANTI-ANDROGEN RECEPTOR ACTIVITY, AND USE THEREOF” (NANJING MINOVA PHARMACEUTICAL CO., LTD., priority 2022, published 2025).

Tested on: human prostate cancer cells 22Rvl
Test: Cell viability inhibition assay (CTG) on 22Rvl cells
Type: cell-based
Conditions: 120 h, no DHT, 5 days, read-out: Inhibitory activity against human prostate cancer cells 22Rvl IC50
Description: Human prostate cancer cells LNCaP and human prostate cancer cells 22Rvl are present in patients with prostate cancer. An androgen, DHT, is able to promote the growth of human prostate cancer cells LNCaP. Using the cell model described above was intended to study the inhibitory effects of the compounds of the present disclosure on the growth of human prostate cancer cells (human prostate cancer cells LNCaP and human prostate cancer cells 22Rvl) in the presence or absence of DHT. […]
The medium in the culture dish was discarded, and 5 mL of trypsin was added for digestion for about 3 mins. […] 1 mL of the cells was taken and counted, and the cell viability was detected. […]
After the cells were attached to the well, for the human prostate cancer cells LNCaP group, test compounds (0.1 μM, 0.3 μM, 1 μM, 3 μM, 10 μM, and 30 μM) and DHT (1 nM, inducing the expression of AR) were added to the 96-well plate, and the plate was incubated for another 5 days; for the human prostate cancer cells 22Rvl group, test compounds (0.1 μM, 0.3 μM, 1 μM, 3 μM, 10 μM, and 30 μM) were added to the 96-well plate, and the plate was incubated for another 5 days. […] The cell viability was detected by using a CTG method. […] The fluorescence value in each well was then detected. […] For data analysis, an assay background value was subtracted from all data points, which was determined in wells containing the medium but no cells. […]

COc1ccc(/C=C/C(=O)C2(C(=O)/C=C/c3ccc(OC)c(OC)c3)CCC(F)(F)CC2)cc1OC [Compound 8]
IC50: 350 nM
